Reference: patent US20240308987A1, “SMALL MOLECULE INHIBITOR AGAINST NASOPHARYNGEAL CARCINOMA, PREPARATION METHOD AND APPLICATION THEREOF” (SHENZHEN BAY LABORATORY, priority 2021, published 2024)

System: C666-1 cells
Test: C666-1 Cell Viability Assay (Resazurin cytotoxicity test)
Assay type: cell-based
Conditions: Homo sapiens, C6661, EB virus-positive C666-1 cells, 72 hours treatment, 100-0.78 micromole/L, read-out: Inhibitory Rate
Description: In order to evaluate the inhibitory effect of the small molecular compound of the present disclosure on EBNA1 at the cellular level, a cytotoxicity test was performed.
As mentioned in the Background of the present disclosure, nasopharyngeal carcinoma is a kind of disease highly associated with latent infection of EB virus. EB virus in latent state only expresses limited proteins to maintain its genome replication, among which EBNA1 protein is an essential functional protein. Studies have confirmed that inhibition of EBNA1 can reduce the proliferation of the corresponding nasopharyngeal carcinoma cells or kill them. Therefore, EB virus-positive nasopharyngeal carcinoma tumor cells (C666-1 cells) are selected for test to verify the effect of the small molecular compound of the present disclosure.
During testing, 100 microliters of different cell lines were inoculated onto a transparent 96-well plate, and 5×10^3 cells were inoculated in each well for C666-1 cells. After the cells were cultured in an incubator under […] at 37° C. for 24 hours, 10 microliters of compound with a concentration ranging from 1 mmol/L to 7.8 micromol/L were added to each well (8 points, double dilution, the final concentration was 100-0.78 micromole/L), and treated in the incubator under carbon dioxide at 37° C. for 72 hours. Cell viability was assessed using the redox indicator Resazurin. After addition of 10 microliters of 600 micromole/liter Resazurin to each well and incubation at 37° C. for 3 hours. Using a Tecan microplate reader, the fluorescence signals were detected at an […]. A software was used to fit the inhibition curve and calculate half-maximal effect concentration (EC50). The selectivity of compound activity was assessed by comparing the EC50 values of EB virus-positive and EB virus-negative cell lines.

SMILES: O=C(Cc1ccc(OC2CN(c3cccc(C(=O)O)c3-c3ccccc3)C2)cc1)Nc1cccnc1 [Example 40a, 6-(3-(4-(2-oxo-2-(pyridin-3-ylamino)ethyl)phenoxy)azetidin-1-yl)-[1,1′-biphenyl]-2-carboxylic acid]
- EC50: 1 to 10 µM

SMILES: COC(=O)c1cccc(C#Cc2ccc(NC(=O)Nc3cccnc3)cc2)c1-c1ccccc1 [Example 58, methyl 6-((4-(3-(pyridin-3-yl)ureido)phenyl)ethynyl)-[1,1′-biphenyl]-2-carboxylate]
- EC50: < 1 µM

SMILES: O=C(O)c1cccc(N2CC(Oc3ccc(COc4ccccn4)cc3)C2)c1-n1cccc1 [Example 12a, 3-(3-(4-((pyridin-2-yloxy)methyl)phenoxy)azetidin-1-yl)-2-(1H-pyrrol-1-yl) benzoic acid]
- EC50: > 50 µM

SMILES: COc1cncc(OCc2ccc(OC3CN(c4cccc(C(=O)O)c4-n4cccc4)C3)cc2)c1 [Example 6a, 3-(3-(4-(((5-methoxypyridin-3-yl)oxy)methyl)phenoxy)azetidin-1-yl)-2-(1H-pyrrol-1-yl) benzoic acid]
- EC50: > 50 µM

SMILES: CNC(=O)c1cccc(N2CC(Oc3ccc(COc4cccnc4)cc3)C2)c1-n1cccc1 [Example 1d, N-methyl-3-(3-(4-((pyridin-3-yloxy)methyl)phenoxy)azetidin-1-yl)-2-(1H-pyrrol-1-yl) benzamide]
- EC50: < 1 µM

SMILES: O=C(NO)c1cccc(N2CC(Oc3ccc(CNc4cccnc4)cc3)C2)c1-c1ccccc1 [Example 39b, N-hydroxy-6-(3-(4-((pyridin-3-ylamino)methyl)phenoxy)azetidin-1-yl)-[1,1′-biphenyl]-2-carboxamide]
- EC50: < 1 µM

SMILES: CNC(=O)c1cccc(N2CC(Oc3ccc(NC(=O)Nc4cccnc4)cc3)C2)c1-c1ccccc1 [Example 42c, N-methyl-6-(3-(4-(3-(pyridin-3-yl)ureido)phenoxy)azetidin-1-yl)-[1,1′-biphenyl]-2-carboxamide]
- EC50: < 1 µM

SMILES: COC(=O)c1cccc(N2CC(Oc3ccc(NC(=O)Nc4cncc(C)c4)cc3)C2)c1-n1cccc1 [Example 47, methyl 3-(3-(4-(3-(5-methylpyridin-3-yl)ureido)phenoxy)azetidin-1-yl)-2-(1H-pyrrol-1-yl) benzoate]
- EC50: 10 to 50 µM

SMILES: O=C(O)c1cccc(N2CC(Oc3ccc(COCc4cccnc4)cc3)C2)c1-n1cccc1 [Example 27a, 3-(3-(4-((pyridin-3-ylmethoxy)methyl)phenoxy)azetidin-1-yl)-2-(1H-pyrrol-1-yl) benzoic acid]
- EC50: > 50 µM

SMILES: O=C(Cc1ccc(C#Cc2cccc(C(=O)NO)c2-c2ccccc2)cc1)Nc1cccnc1 [Example 60b, N-hydroxy-6-((4-(2-oxo-2-(pyridin-3-ylamino)ethyl)phenyl)ethynyl)-[1,1′-biphenyl]-2-carboxamide]
- EC50: < 1 µM

SMILES: O=C(Nc1ccc(OC2CN(c3cccc(C(=O)NO)c3-n3cccc3)C2)cc1)Nc1cccnc1 [Example 34b, N-hydroxy-3-(3-(4-(3-(pyridin-3-yl)ureido)phenoxy)azetidin-1-yl)-2-(1H-pyrrol-1-yl) benzamide]
- EC50: < 1 µM

SMILES: O=C(Nc1ccc(C#Cc2cccc(C(=O)O)c2-c2ccccc2)cc1)Nc1cccnc1 [Example 58a, 6-((4-(3-(pyridin-3-yl)ureido)phenyl)ethynyl)-[1,1′-biphenyl]-2-carboxylic acid]
- EC50: 1 to 10 µM

SMILES: O=C(NO)c1cccc(N2CC(Oc3ccc(CNc4cccnc4)cc3)C2)c1-n1cccc1 [Example 23b, N-hydroxy-3-(3-(4-((pyridin-3-ylamino)methyl)phenoxy)azetidin-1-yl)-2-(1H-pyrrol-1-yl) benzamide]
- EC50: < 1 µM

SMILES: O=C(Cc1ccc(C#Cc2cccc(C(=O)O)c2-c2ccc3cc[nH]c3c2)cc1)Nc1cccnc1 [Example 61a, 2-(1H-indol-6-yl)-3-((4-(2-oxo-2-(pyridin-3-ylamino)ethyl)phenyl)ethynyl) benzoic acid]
- EC50: < 1 µM

SMILES: COC(=O)c1cccc(C#Cc2ccc(NC(=O)Nc3cccnc3)c(O)c2)c1-c1ccccc1 [Example 22, methyl 6-((3-hydroxy-4-(3-(pyridin-3-yl)ureido)phenyl)ethynyl)-[1,1′-biphenyl]-2-carboxylate]
- EC50: < 1 µM

SMILES: O=C(NO)c1cccc(N2CC(Oc3ccc(/C=C/c4cccnc4)cc3)C2)c1-c1ccccc1 [Example 36b, (E)-N-hydroxy-6-(3-(4-(2-(pyridin-3-yl)vinyl)phenoxy)azetidin-1-yl)-[1,1′-biphenyl]-2-carboxamide]
- EC50: < 1 µM

SMILES: CCOC(=O)c1cccc(N2CC(Oc3ccc(COc4cccnc4)cc3)C2)c1-n1cccc1 [Example 1b, ethyl 3-(3-(4-((pyridin-3-yloxy)methyl)phenoxy)azetidin-1-yl)-2-(1H-pyrrol-1-yl) benzoate]
- EC50: < 1 µM

SMILES: COC(=O)c1cccc(N2CC(Oc3ccc(COc4ccc(C)nc4)cc3)C2)c1-n1cccc1 [Example 5, methyl 3-(3-(4-((6-methylpyridin-3-yloxy)methyl)phenoxy)azetidin-1-yl)-2-(1H-pyrrol-1-yl) benzoate]
- EC50: > 50 µM

SMILES: O=C(O)c1cccc(N2CC(Oc3ccc(COc4ccsn4)cc3)C2)c1-n1cccc1 [Example 33a, 3-(3-(4-((isothiazol-3-yloxy)methyl)phenoxy)azetidin-1-yl)-2-(1H-pyrrol-1-yl) benzoic acid]
- EC50: > 50 µM

SMILES: O=C(O)c1cccc(N2CC(Oc3ccc(COc4ncccn4)cc3)C2)c1-n1cccc1 [Example 11a, 3-(3-(4-((pyrimidin-2-yloxy)methyl)phenoxy)azetidin-1-yl)-2-(1H-pyrrol-1-yl) benzoic acid]
- EC50: > 50 µM

SMILES: O=C(O)c1cccc(N2CC(Oc3ccc(/C=C/c4cccnc4)cc3)C2)c1-n1cccc1 [Example 28a, (E)-3-(3-(4-(2-(pyridin-3-yl)vinyl)phenoxy)azetidin-1-yl)-2-(1H-pyrrol-1-yl) benzoic acid]
- EC50: 1 to 10 µM

SMILES: O=C(O)c1cccc(N2CC(Oc3ccc(/C=C/c4cccnc4)cc3)C2)c1-c1ccccc1 [Example 36a, (E)-6-(3-(4-(2-(pyridin-3-yl)vinyl)phenoxy)azetidin-1-yl)-[1,1′-biphenyl]-2-carboxylic acid]
- EC50: 10 to 50 µM

SMILES: COC(=O)c1cccc(N2CC(Oc3ccc(NC(=O)Nc4cncc(F)c4)cc3)C2)c1-n1cccc1 [Example 46, methyl 3-(3-(4-(3-(5-fluoropyridin-3-yl)ureido)phenoxy)azetidin-1-yl)-2-(1H-pyrrol-1-yl) benzoate]
- EC50: 1 to 10 µM

SMILES: O=C(O)c1cccc(N2CC(Oc3ccc(COc4cnc5ccccc5c4)cc3)C2)c1-n1cccc1 [Example 9a, 2-(1H-pyrrol-1-yl)-3-(3-(4-((quinolin-3-yloxy)methyl)phenoxy)azetidin-1-yl) benzoic acid]
- EC50: > 50 µM

SMILES: O=C(Nc1ccc(OC2CN(c3cccc(C(=O)NO)c3-c3ccccc3)C2)cc1)Nc1cccnc1 [Example 42b, N-hydroxy-6-(3-(4-(3-(pyridin-3-yl)ureido)phenoxy)azetidin-1-yl)-[1,1′-biphenyl]-2-carboxamide]
- EC50: < 1 µM

SMILES: COC(=O)c1cccc(N2CC(Oc3ccc(NC(=O)Nc4cccc(C(F)(F)F)c4)cc3)C2)c1-n1cccc1 [Example 10, methyl 2-(1H-pyrrol-1-yl)-3-(3-(4-(3-(3-(trifluoromethyl)phenyl)ureido)phenoxy)azetidin-1-yl) benzoate]
- EC50: 10 to 50 µM

SMILES: O=C(Nc1ccc(OC2CN(c3cccc(C(=O)O)c3-c3cccc(Cl)c3)C2)cc1)Nc1cccc(C(F)(F)F)c1 [Example 37a, 3′-chloro-6-(3-(4-(3-(3-(trifluoromethyl)phenyl)ureido)phenoxy)azetidin-1-yl)-[1,1′-biphenyl]-2-carboxylic acid]
- EC50: > 50 µM
